Laboratory results reported in US6878722B2, “Substituted cycloalkyl P1′ hepatitis C virus inhibitors” (Bristol-Myers Squibb Company, priority 2002, dated 2005).

How the values were obtained:
[1] = target: T1, HCV NS3/4A protease complex (BMS strain, genotype 1a) (Hepatitis C virus genotype 1a, UniProt P27958, C1454S); test: Recombinant HCV NS3/4A protease complex FRET peptide assay, BMS strain; format: biochemical; conditions: IC50 range, NS3/4A BMS Strain
T1 construct: DNA encoding the recombinant HCV NS3/4A protease complex (amino acids 1027 to 1711) for these strains; inferred from the pET21b vector and Ni-NTA purification; made in house; host or cells: Escherichia coli BL21 (DE3), pET21b
Method in brief: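 Recombinant NS3/4A complex (aa 1027–1711) with C-terminal three-lysine tail, C1711G and C1454S, expressed in E. coli BL21(DE3) and purified by Ni-NTA then Superdex-S200. Inhibition of the complex from each strain measured in vitro by FRET peptide cleavage.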

[2] = tested on: HCV replicon in Huh7 cells; test: HCV replicon cell-based assay (FRET); conditions: Hepatitis C virus, Huh-7; HCV replicon; read-out: EC50 range
Method in brief: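 Huh7 cells stably carrying a genotype 1b HCV replicon (IRES-neo-EMCV-IRES-NS3-NS5B) were treated with compound for 4 days at 37 °C in 0.5% DMSO final. Lysates containing 10 μM FRET peptide RET S1 were read kinetically at 340/490 nm to give NS3 protease activity, from which EC50 was derived.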

T1 sequence (P27958 1658-1714, looked up, stated change not applied): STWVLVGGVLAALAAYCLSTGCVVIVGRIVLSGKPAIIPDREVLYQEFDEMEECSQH
T1 sequence (P27958 1027-1657, looked up, stated change not applied): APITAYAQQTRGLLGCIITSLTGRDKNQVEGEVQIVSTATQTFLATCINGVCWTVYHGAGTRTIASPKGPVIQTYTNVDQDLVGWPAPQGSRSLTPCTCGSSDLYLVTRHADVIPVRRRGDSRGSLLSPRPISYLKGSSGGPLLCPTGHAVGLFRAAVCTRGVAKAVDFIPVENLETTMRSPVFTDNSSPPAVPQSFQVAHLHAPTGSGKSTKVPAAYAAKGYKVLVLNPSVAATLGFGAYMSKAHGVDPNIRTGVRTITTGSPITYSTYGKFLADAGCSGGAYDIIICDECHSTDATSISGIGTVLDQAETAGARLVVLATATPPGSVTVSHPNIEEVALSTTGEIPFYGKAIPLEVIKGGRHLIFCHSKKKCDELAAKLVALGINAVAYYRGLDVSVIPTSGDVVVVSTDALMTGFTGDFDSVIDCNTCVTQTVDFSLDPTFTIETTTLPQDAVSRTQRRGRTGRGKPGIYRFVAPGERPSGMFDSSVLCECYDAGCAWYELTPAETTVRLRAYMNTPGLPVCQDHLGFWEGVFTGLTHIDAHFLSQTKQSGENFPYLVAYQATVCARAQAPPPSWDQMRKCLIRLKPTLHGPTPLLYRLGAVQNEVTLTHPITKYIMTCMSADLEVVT

C=C[C@@H]1C[C@]1(NC(=O)[C@@H]1C[C@@H](Oc2cc(-c3ccccc3)nc3cc(OC)ccc23)CN1C(=O)[C@@H](NC(=O)OC(C)(C)C)C(C)(C)C)C(=O)NS(=O)(=O)C1(CC(C)C)CC1 [Compound 31, {1-[2-[1-(1-Isobutyl-cyclopropanesulfonylaminocarbonyl)-2-vinyl-cyclopropylcarbamoyl]-4-(7-methoxy-2-phenyl-quinolin-4-yloxy)-pyrrolidine-1-carbonyl]-2,2-dimethyl-propyl}-carbamic acid tert-butyl ester]
IC50 [1]: < 50 nM | EC50 [2]: 50 to 500 nM
